One assay concerns proteosome pathway. Kind of assay: Proteasome inhibition in CHO cells stably expressing recombinant Insl6, Western blot with anti-Insl6 antibody. Format: cell-based, chinese hamster. Particulars: 5 μM, cells harvested after 4 h or 24 h, FIG. 5D. As to the method:
(§1) Based on the magnitude of difference in molecular weights between the two species (31-32 vs. 40 kDa), it was investigated whether Insl6 is ubiquinated. […] In contrast, the absence of the larger bands in a transcription/translation reaction using wheat germ extracts (FIG. 5C) supports the possibility that the Insl6 protein is ubiquinated. […] Briefly CHO cells stably expressing Insl6 were either exposed to vehicle (−) or 5 μM Clasto-Lactacystin-β-lactone (Clasto-L) (+) and cells harvested after 4 h (lanes A & B) or 24 h (lanes C & D). The cell lysates were Western blotted with anti-Insl6 antibody. To address te possibility that over-expression of Insl6 in the CHO cells may have facilitated aberrant ubiquination, the effect of inhibition of the proteasome pathway in a coupled in vitro transcriptiontranslation was investigated. The data obtained support the in vivo data showing that inhibition of the proteasome pathway results in decelerated rate of degradation of the Insl6 (FIG. 5E). Briefly, coupled in vitro transcription/translation of Insl6 using reticulocyte lysates performed in the presence of [^35S]
Background: In western blotting, separated proteins are transferred to a membrane and probed.

The subject of a further assay is proteasome pathway. Description: Coupled in vitro transcription/translation of Insl6 using reticulocyte lysates with proteasome inhibition. Format: biochemical. The settings on record: 5 μM, [35S] L-cysteine, FIG. 5E. As for the experimental part: as §1
In a further assay the target is PKA (Homo sapiens, UniProt P17612). The settings on record: vendor Tocris; cited from earlier work.
The target of another assay is T1, PKG (Homo sapiens, UniProt Q13976).
T1 sequence (Q13976 1-671): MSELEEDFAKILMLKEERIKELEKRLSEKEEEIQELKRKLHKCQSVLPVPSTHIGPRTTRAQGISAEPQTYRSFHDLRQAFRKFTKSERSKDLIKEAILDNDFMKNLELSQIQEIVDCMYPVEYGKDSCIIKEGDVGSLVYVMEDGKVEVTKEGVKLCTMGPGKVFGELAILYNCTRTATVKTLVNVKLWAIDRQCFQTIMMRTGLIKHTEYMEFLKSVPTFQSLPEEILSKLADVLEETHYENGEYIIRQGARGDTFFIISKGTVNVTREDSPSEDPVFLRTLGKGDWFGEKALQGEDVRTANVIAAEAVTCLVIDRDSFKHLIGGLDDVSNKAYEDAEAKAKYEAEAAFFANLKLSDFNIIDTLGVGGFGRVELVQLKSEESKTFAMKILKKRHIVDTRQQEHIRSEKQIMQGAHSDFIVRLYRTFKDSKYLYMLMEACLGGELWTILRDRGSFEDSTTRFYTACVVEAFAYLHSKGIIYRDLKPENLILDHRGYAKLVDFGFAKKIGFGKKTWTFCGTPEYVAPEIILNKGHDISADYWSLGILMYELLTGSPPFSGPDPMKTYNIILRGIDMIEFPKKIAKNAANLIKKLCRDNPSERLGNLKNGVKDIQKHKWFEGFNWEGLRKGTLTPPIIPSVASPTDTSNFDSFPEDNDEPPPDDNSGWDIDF
Particulars: no effect on PKG; cited from earlier work.

Another assay concerns the target PKC. The settings on record: no effect on PKC; cited from earlier work.
For assay [1], the system named is MSC-1 (mouse Sertoli cell line) cells. Description: Tyrosine phosphorylation of MSC-1 cellular proteins, anti-phosphotyrosine Western blot. Particulars: serum-deprived cells, ten minutes, serum-free conditioned medium from CHO cells expressing Insl6 vs non-transfected CHO; FIG. 11A. Format: cell-based. The text has this:
The effect of Insl6 on Sertoli cells was confirmed by exposing serum-deprived MSC-1 (mouse Sertoli cell line) cells to serum-free conditioned medium containing recombinant Insl6 secreted by the CHO cells stably expressing epitope-tagged Ins16. The effect of Insl6 on the phosphorylation status of MSC-1 cellular proteins was initially investigated. […] Serum-deprived MSC-1 cells were exposed for ten minutes to serum-free conditioned medium from either CHO cells expressing Insl6 (lane A, FIG. 11A) or from non-transfected CHO cells (lane B, FIG. 11A). Cell lysates were subjected to reducing SDS-PAGE and blotted with antiphphosphotyrosine antibodies. The specific protein bands showing increased phosphorylation in response to Insl6 are indicated by the diamond and star symbols respectively.
(§2) Western Blot Analysis—Western blot analyses were carried out by established protocols known by those skilled in art. […] Equality of loading and efficiency of transfer were assessed by Ponceau staining of the nitrocellulose filters and protein concentration determined by Bradford's method (BioRad). […]

The subject of the next assay is MSC-1 cells. Description: Proliferation of MSC-1 cells, colorimetric viable cell assay. Format: cell-based, mouse. Particulars: serum-deprived cells, varying time periods, conditioned medium from CHO cells expressing Insl6 vs non-transfected CHO; FIG. 12. As for the experimental part:
To further investigate the significance of alteration in the tyrosine phosphorylation status of MSC-1 proteins, the effects of Insl6 on proliferation of MSC-1 were tested. For these experiments serum-deprived MSC-1 cells were exposed for varying time periods to serum-free conditioned medium from either CHO cells expressing Insl6 or from non-transfected CHO cells and the number of viable cells determined by a colorimetic assay (celltiter 96 Aqueous One Solution Cell Proliferation Assay; Promega, Madison, Wis., USA).

Assay [2] has as its system rat primary Sertoli cells. Description: Tyrosine phosphorylation profile of rat primary Sertoli cell proteins by Western blotting. Format: cell-based. The settings on record: serum-deprived rat primary Sertoli cells, recombinant Insl6 in serum-free milieu.
From the text: Although Sertoli cell lines are useful tools for investigating Sertoli cell function, they are important differences between primary Sertoli cells and established Sertoli cell lines. For example, compared to primary Sertoli cells, MSC-1 cells are relatively deficient in the FSH receptor. […] For this purpose, we exposed serum-deprived rat primary Sertoli cells to recombinant Insl6 in a serum-free milieu and determined the tyrosine phosphorylation profile of cellular proteins by Western blotting. […] Based on the premise that Insl6 belongs to the insulin family of proteins, the following canonical signaling pathways involving Insl6 action on Sertoli cells were investigated:
Isolation and culture of primary rat Sertoli cells—Rat Sertoli cells were isolated in our laboratory using a standardized protocol. […] The purity of the Sertoli cell isolate yielded by this protocol is >95% as determined by phase microscopy and alkaline phosphatase staining.
as §2

Some results are limits rather than exact numbers.

`CC(C)[C@H](O)[C@@]12NC(=O)[C@H](C)[C@@H]1OC2=O` [Clasto-Lactacystin-β-lactone]: the “effect on half-life of Insl6” value with proteosome pathway is listed as “prolongation of the half-life of Insl6”. Besides, in the assay on proteasome pathway, the “effect on rate of degradation of Insl6” value is recorded as “decelerated rate of degradation of Insl6”.
Usually Ki stands for a measure of affinity in units of concentration, obtained from inhibition or displacement. Take `CCCCCCOC(=O)[C@]1(O)C[C@@H]2O[C@@]1(C)n1c3ccccc3c3c4c(c5c6ccccc6n2c5c31)C(=O)NC4` [KT 5720]: the Ki was 60 nM on PKA, > 2000 nM at PKG and > 2000 nM at PKC.

B1: Insl6: recombinant His-myc epitope-tagged murine Insl6, insulin family protein, secreted by stably expressing CHO cells (protein)
chain: EEESRPRKLCGRHLLIEVIKLCGQSDWSRFEMEEQSPMTQFFPHYSRKGKAFNPHPSSSAWRRFTNPVPAGVSQKKGTHTWEPQSLPDYQFEKTELLPKARVFSYHSGKPYVKSVQLQKKSTNKMNTFRSLFWGNHSQRKRRGFADKCCVIGCTKEEMAVACLPFVDF
modifications: left off: small tags and cut ends
Turning to B1, the “effect on tyrosine phosphorylation of cellular proteins” value in assay [1] was “specific tyrosine phosphorylation of proteins of molecular weights of approximately 55 and 40 kDa”; in assay [2] it was “alters the tyrosine phosphorylation status of cellular proteins”. In the assay with MSC-1 cells, the effect on proliferation entry is reported as “significantly inhibits the proliferation of MSC-1 in a time-dependent manner”.
